Measurements taken from PMC7481290, “Halogenation as a tool to tune antimicrobial activity of peptoids” (Scientific Reports, 2020).
Values after ≈ are worked out from the molar mass of the structure shown. Non-standard residues stand in square brackets, D forms with d. Residues, ends and D or L forms follow the SMILES beside them. Gly(Nα-4-Cl-benzyl) = O=C(O)CNCc1ccc(Cl)cc1; N(4-Br-benzyl)Gly = O=C(O)CNCc1ccc(Br)cc1; Nspe(4-Br) = C[C@H](NCC(=O)O)c1ccc(Br)cc1; N(4-F-Bzl)Gly = O=C(O)CNCc1ccc(F)cc1; NBzl(4-I)Gly = O=C(O)CNCc1ccc(I)cc1; Nspe = C[C@H](NCC(=O)O)c1ccccc1; Nphe = O=C(O)CNCc1ccccc1; Nlys = NCCCCNCC(=O)O

Assays:
E. coli ATCC 25922 = assay type: cell-based, Escherichia coli; settings: ATCC 25922, 18 h
Procedure: (§1) Bacterial growth inhibition was determined by using broth microdilution according to the Clinical Laboratory Standards Institute[43]. The antibacterial activity of peptoids was tested against S. aureus ATCC 25923, ATCC29213, and methicillin resistant S. aureus USA 300, methicillin resistant S. epidermidis ATCC 51625, a biofilm producing methicillin resistant S. epidermidis ET-024[44], P. aeruginosa Pa01 (H103), and E. coli ATCC 25922. Bacteria, grown on agar plates for 18 h at 37 °C, were diluted to ∼1 × 10^8 CFU/mL in Mueller‐Hinton Broth II (MHB II). Twofold serial dilutions of peptoids in MHB II were inoculated with bacteria to achieve a final concentration of 5 × 10^5 CFU/mL in polypropylene 96 U‐well microtiter plates (Corning 3,897; ThermoFisher Scientific, Roskilde), followed by incubation at 37 °C in ambient air for 18 h. The MIC values were determined as the lowest concentration showing no visible bacterial growth. Experiments were performed twice (in technical triplicates) on 2 different days.

[1] = system: Methicillin-resistant S. epidermidis ET-024; assay type: cell-based, Staphylococcus epidermidis; settings: Methicillin-resistant ET-024, 18 h
Procedure: as §1

[2] = system: Methicillin-resistant S. epidermidis ATCC 51625; assay type: cell-based, Staphylococcus epidermidis; settings: ATCC 51625, 18 h
Procedure: as §1

[3] = system: P. aeruginosa PA01 (H103); assay type: cell-based, Pseudomonas aeruginosa; settings: H103, 18 h
Procedure: as §1

S. aureus ATCC 25923 = assay type: cell-based, Staphylococcus aureus; settings: ATCC 25923, 18 h
Procedure: as §1

[4] = system: Methicillin-resistant S. aureus USA 300; assay type: cell-based, Staphylococcus aureus; settings: USA 300, 18 h
Procedure: as §1

S. aureus ATCC 29213 = assay type: cell-based, Staphylococcus aureus; settings: ATCC 29213, 18 h
Procedure: as §1

SMILES	Minimal inhibitory concentration EC^f (E. coli ATCC 25922) [µg/mL]	Minimal inhibitory concentration MRSE^d [1] [µg/mL]	Minimal inhibitory concentration MRSE^e [2] [µg/mL]	Minimal inhibitory concentration PA^g [3] [µg/mL]	Minimal inhibitory concentration SA^a (S. aureus ATCC 25923) [µg/mL]	Minimal inhibitory concentration MRSA^c [4] [µg/mL]	Minimal inhibitory concentration SA^b (S. aureus ATCC 29213) [µg/mL]	MIC EC^e (E. coli ATCC 25922)	MIC MRSE^c [1] [µg/mL]	MIC MRSE^d [2] [µg/mL]	MIC PA^f [3] [µg/mL]	MIC SA^a (S. aureus ATCC 25923) [µg/mL]	MIC MRSA^b [4] [µg/mL]
NCCCCNCC(=O)N(CC(=O)N(CCCCN)CC(=O)N(CC(=O)N(CCCCN)CC(=O)N(CC(N)=O)Cc1ccc(F)cc1)Cc1ccc(F)cc1)Cc1ccc(F)cc1 [Compound 2] (H-[Nlys][N(4-F-Bzl)Gly][Nlys][N(4-F-Bzl)Gly][Nlys][N(4-F-Bzl)Gly]-NH2)	512 (≈ 571 µM)	128 (≈ 143 µM)	512 (≈ 571 µM)	> 512	> 512	512 (≈ 571 µM)	> 512	–	–	–	–	–	–
NCCCCNCC(=O)N(CC(=O)N(CCCCN)CC(=O)N(CC(=O)N(CCCCN)CC(=O)N(CC(N)=O)Cc1ccc(Cl)cc1)Cc1ccc(Cl)cc1)Cc1ccc(Cl)cc1 [Compound 3] (H-[Nlys][Gly(Nα-4-Cl-benzyl)][Nlys][Gly(Nα-4-Cl-benzyl)][Nlys][Gly(Nα-4-Cl-benzyl)]-NH2)	512 (≈ 541 µM)	16 (≈ 16.9 µM)	8 (≈ 8.45 µM)	512 (≈ 541 µM)	64 (≈ 67.6 µM)	16 (≈ 16.9 µM)	64 (≈ 67.6 µM)	–	–	–	–	–	–
NCCCCNCC(=O)N(CC(=O)N(CCCCN)CC(=O)N(CC(=O)N(CCCCN)CC(=O)N(CC(N)=O)Cc1ccc(Br)cc1)Cc1ccc(Br)cc1)Cc1ccc(Br)cc1 [Compound 4] (H-[Nlys][N(4-Br-benzyl)Gly][Nlys][N(4-Br-benzyl)Gly][Nlys][N(4-Br-benzyl)Gly]-NH2)	64 (≈ 59.3 µM)	4 (≈ 3.7 µM)	4 (≈ 3.7 µM)	> 512	16 (≈ 14.8 µM)	16 (≈ 14.8 µM)	16 (≈ 14.8 µM)	–	–	–	–	–	–
NCCCCNCC(=O)N(CC(=O)N(CCCCN)CC(=O)N(CC(=O)N(CCCCN)CC(=O)N(CC(N)=O)Cc1ccc(F)cc1)Cc1ccccc1)Cc1ccc(F)cc1 [Compound 6] (H-[Nlys][N(4-F-Bzl)Gly][Nlys][Nphe][Nlys][N(4-F-Bzl)Gly]-NH2)	> 512	256 (≈ 291 µM)	512 (≈ 582 µM)	> 512	> 512	> 512	> 512	–	–	–	–	–	–
NCCCCNCC(=O)N(CC(=O)N(CCCCN)CC(=O)N(CC(=O)N(CCCCN)CC(=O)N(CC(N)=O)Cc1ccc(Cl)cc1)Cc1ccccc1)Cc1ccc(Cl)cc1 [Compound 7] (H-[Nlys][Gly(Nα-4-Cl-benzyl)][Nlys][Nphe][Nlys][Gly(Nα-4-Cl-benzyl)]-NH2)	256 (≈ 281 µM)	64 (≈ 70.2 µM)	32 (≈ 35.1 µM)	512 (≈ 561 µM)	256 (≈ 281 µM)	128 (≈ 140 µM)	256 (≈ 281 µM)	–	–	–	–	–	–
NCCCCNCC(=O)N(CC(=O)N(CCCCN)CC(=O)N(CC(=O)N(CCCCN)CC(=O)N(CC(N)=O)Cc1ccc(Br)cc1)Cc1ccccc1)Cc1ccc(Br)cc1 [Compound 8] (H-[Nlys][N(4-Br-benzyl)Gly][Nlys][Nphe][Nlys][N(4-Br-benzyl)Gly]-NH2)	256 (≈ 256 µM)	32 (≈ 32 µM)	16 (≈ 16 µM)	256 (≈ 256 µM)	128 (≈ 128 µM)	64 (≈ 63.9 µM)	64 (≈ 63.9 µM)	–	–	–	–	–	–
NCCCCNCC(=O)N(CC(=O)N(CCCCN)CC(=O)N(CC(=O)N(CCCCN)CC(=O)N(CC(N)=O)Cc1ccc(I)cc1)Cc1ccccc1)Cc1ccc(I)cc1 [Compound 9] (H-[Nlys][NBzl(4-I)Gly][Nlys][Nphe][Nlys][NBzl(4-I)Gly]-NH2)	256 (≈ 234 µM)	16 (≈ 14.6 µM)	4 (≈ 3.65 µM)	256 (≈ 234 µM)	64 (≈ 58.5 µM)	16 (≈ 14.6 µM)	16 (≈ 14.6 µM)	–	–	–	–	–	–
NCCCCNCC(=O)N(CC(=O)N(CCCCN)CC(=O)N(CC(=O)N(CCCCN)CC(=O)N(CC(=O)N(CCCCN)CC(=O)N(CC(N)=O)Cc1ccc(F)cc1)Cc1ccc(F)cc1)Cc1ccc(F)cc1)Cc1ccc(F)cc1 [Compound 11] (H-[Nlys][N(4-F-Bzl)Gly][Nlys][N(4-F-Bzl)Gly][Nlys][N(4-F-Bzl)Gly][Nlys][N(4-F-Bzl)Gly]-NH2)	128 (≈ 108 µM)	64 (≈ 53.8 µM)	32 (≈ 26.9 µM)	> 512	256 (≈ 215 µM)	256 (≈ 215 µM)	256 (≈ 215 µM)	–	–	–	–	–	–
NCCCCNCC(=O)N(CC(=O)N(CCCCN)CC(=O)N(CC(=O)N(CCCCN)CC(=O)N(CC(=O)N(CCCCN)CC(=O)N(CC(N)=O)Cc1ccc(Cl)cc1)Cc1ccc(Cl)cc1)Cc1ccc(Cl)cc1)Cc1ccc(Cl)cc1 [Compound 12] (H-[Nlys][Gly(Nα-4-Cl-benzyl)][Nlys][Gly(Nα-4-Cl-benzyl)][Nlys][Gly(Nα-4-Cl-benzyl)][Nlys][Gly(Nα-4-Cl-benzyl)]-NH2)	64 (≈ 50.9 µM)	2 (≈ 1.59 µM)	1 (≈ 0.796 µM)	> 512	4 (≈ 3.18 µM)	2 (≈ 1.59 µM)	4 to 8	–	–	–	–	–	–
NCCCCNCC(=O)N(CC(=O)N(CCCCN)CC(=O)N(CC(=O)N(CCCCN)CC(=O)N(CC(=O)N(CCCCN)CC(=O)N(CC(N)=O)Cc1ccc(Br)cc1)Cc1ccc(Br)cc1)Cc1ccc(Br)cc1)Cc1ccc(Br)cc1 [Compound 13] (H-[Nlys][N(4-Br-benzyl)Gly][Nlys][N(4-Br-benzyl)Gly][Nlys][N(4-Br-benzyl)Gly][Nlys][N(4-Br-benzyl)Gly]-NH2)	64 (≈ 44.6 µM)	2 (≈ 1.39 µM)	4 (≈ 2.79 µM)	> 512	4 (≈ 2.79 µM)	2 (≈ 1.39 µM)	8 (≈ 5.58 µM)	–	–	–	–	–	–
C[C@@H](c1ccc(Br)cc1)N(CC(N)=O)C(=O)CN(C(=O)CN(CCCCN)C(=O)CN(C(=O)CN(C(=O)CNCCCCN)[C@@H](C)c1ccccc1)[C@@H](C)c1ccccc1)[C@@H](C)c1ccccc1 [Compound 49] (H-[Nlys][Nspe][Nspe][Nlys][Nspe][Nspe(4-Br)]-NH2)	–	–	–	–	–	–	–	> 64 µg/mL	16 (≈ 16 µM)	8 (≈ 8.02 µM)	64 (≈ 64.2 µM)	64 (≈ 64.2 µM)	32 (≈ 32.1 µM)
C[C@@H](c1ccccc1)N(CC(N)=O)C(=O)CN(C(=O)CN(CCCCN)C(=O)CN(C(=O)CN(C(=O)CNCCCCN)[C@@H](C)c1ccccc1)[C@@H](C)c1ccccc1)[C@@H](C)c1ccccc1 [Pep1-6mer] (H-[Nlys][Nspe][Nspe][Nlys][Nspe][Nspe]-NH2)	–	–	–	–	–	–	–	1,024 μg/mL	64 (≈ 69.7 µM)	64 (≈ 69.7 µM)	256 (≈ 279 µM)	256 (≈ 279 µM)	256 (≈ 279 µM)
